Experimental data reported in patent US5498795A, “Acetylenes disubstituted with hydroxyaryl and aryl or heteroaryl groups having retinoid-like biological activity” (Allergan, Inc., priority 1994, dated 1996).

Tested on: ornithine decarboxylase (ODC)
Experiment: ODC assay: inhibition of TPA induction of ornithine decarboxylase
Type: in vivo
Excerpt: The retinoic acid-like activity of these compounds is confirmed through the classic measure of retinoic acid activity involving the effects of retinoic acid on ornithine decarboxylase. The original work on the correlation between retinoic acid and decrease in cell proliferation was done by Verma & Boutwell, Cancer Research, 1977, 37,2196-2201. That reference discloses that ornithine decarboxylase (ODC) activity increased precedent to polyamine biosynthesis. It has been established elsewhere that increases in polyamine synthesis can be correlated or associated with cellular proliferation. Thus, if ODC activity could be inhibited, cell hyperproliferation could be modulated. Although all cases for ODC activity increases are unknown, it is known that 12-0-tetradecanoylphorbol-13-acetate (TPA) induces ODC activity. Retinoic acid inhibits this induction of ODC activity by TPA. […] Activity of exemplary compounds of the present invention in the above-described ODC assay is disclosed in Table 2 which provides either […] (or other measured per cent inhibition at the indicated concentration) for the respective exemplary compound.

SMILES | % of inhib (conc 300) [%] | % of inhib (conc 100) [%]
O=C(O)c1ccc(C#Cc2ccc(C34CC5CC(CC(C5)C3)C4)c(O)c2)nc1 [Compound 23, 6-[2-[[2-(1-adamantyl)-1-hydroxy]-5-phenyl]-ethyn-1-yl]nicotinic acid] | 55 | –
CC(C)(C)c1ccc(C#Cc2ccc(C(=O)O)cn2)cc1O [Compound 20, 6-[2-[[2-t-Butyl-1-hydroxy]-5-phenyl]ethyn-1-yl]nicotinic acid] | – | 64
